Laboratory results reported in US5409933A, “Quinoline derivatives and processes for preparing the same” (priority 1993, dated 1995).
Where a name gives a salt, the structure may show the parent alone. Read-outs that look alike come from different tables or passages of the source.

What was measured:
Assay in all cases: In Vitro Anti-Bacterial Activity Test (MIC, agar dilution)
Type in all cases: cell-based
[1] = test system: Pseudomonas aeruginosa 1771
Outline: (§1)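 MIC was determined by agar dilution on Mueller-Hinton agar. Each strain was inoculated at 10^7 C.F.U./ml, and growth was observed after 18 hours at 37° C, with ciprofloxacin as control agent.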

Escherichia coli 1507E = conditions: Muller-Hinton agar, 37° C.
Outline: as §1

[2] = test system: Pseudomonas aeruginosa 1771M; conditions: Pseudomonas aeruginosa, 1771M, 18 h, Muller-Hinton agar, 37° C.
Outline: as §1

[3] = test system: Staphylococcus aureus SG511
Outline: as §1

Salmonella typhimurium = conditions: Salmonella enterica
Outline: as §1

[4] = test system: Streptococcus faecium MD8b; conditions: Enterococcus faecium, Muller-Hinton agar, 37° C., 18 hours, read-out: MIC
Outline: as §1

[5] = test system: Streptococcus pyogenes 308A; conditions: Muller-Hinton agar, 37° C., 18 hours, read-out: MIC
Outline: as §1

[6] = test system: Enterobacter cloacae 1321E; conditions: Enterobacter cloacae 1321E; Muller-Hinton agar, 37° C., 18 hours; read-out: MIC
Outline: as §1

[7] = test system: Klebsiella aerogenes 1522E; conditions: Klebsiella aerogenes, 1522E, 18 h
Outline: as §1

[8] = test system: Pseudomonas aeruginosa 1592E; conditions: Muller-Hinton agar, 37° C., 18 hours, read-out: MIC
Outline: as §1

[9] = test system: Streptococcus pyogenes 77A
Outline: as §1

Enterobacter cloacae P99 = conditions: Enterobacter cloacae, P99, 18 h
Outline: as §1

Klebsiella oxytoca 1082E = test system: Klebsiella oxytoca 1082E
Outline: as §1

Escherichia coli 078 = test system: Escherichia coli 078
Outline: as §1

Escherichia coli TEM = conditions: Escherichia coli, 18 h, Muller-Hinton agar, 37° C.
Outline: as §1

Escherichia coli DC2 = test system: Escherichia coli DC2
Outline: as §1

[10] = test system: Pseudomonas aeruginosa 9027; conditions: Muller-Hinton agar, 37° C., 18 hours, read-out: MIC
Outline: as §1

[11] = test system: Staphylococcus aureus 503
Outline: as §1

Escherichia coli DC0 = conditions: Muller-Hinton agar, 37° C., 18 hours, read-out: MIC
Outline: as §1

[12] = test system: Staphylococcus aureus 285; conditions: Staphylococcus aureus, 285, 18 h
Outline: as §1

[13] = Pseudomonas aeruginosa 1771, Muller-Hinton agar, 37° C., 18 hours, read-out: MIC
[14] = Staphylococcus aureus SG511, Muller-Hinton agar, 37° C., 18 hours, read-out: MIC
[15] = Salmonella typhimurium, Muller-Hinton agar, 37° C., 18 hours, read-out: MIC
[16] = Klebsiella aerogenes 1522E, Muller-Hinton agar, 37° C., 18 hours, read-out: MIC
[17] = Streptococcus pyogenes 77A, Muller-Hinton agar, 37° C., 18 hours, read-out: MIC
[18] = Klebsiella oxytoca 1082E, Muller-Hinton agar, 37° C., 18 hours, read-out: MIC
[19] = Escherichia coli 078, Muller-Hinton agar, 37° C., 18 hours, read-out: MIC
[20] = Staphylococcus aureus 503, Muller-Hinton agar, 37° C., 18 hours, read-out: MIC
[21] = Staphylococcus aureus 285, Muller-Hinton agar, 37° C., 18 hours, read-out: MIC
[22] = Streptococcus pyogenes, 77A, 18 h

Compound	MIC [1, 13]	MIC (Escherichia coli 1507E; Escherichia coli, 1507E, 18 h)	MIC [2]	MIC [3, 14]	MIC (Salmonella typhimurium; [15])	MIC [4]	MIC [5]	MIC [6]	MIC [7, 16]	MIC [8]	MIC [9, 17]	MIC (Enterobacter cloacae P99)	MIC (Klebsiella oxytoca 1082E; [18])	MIC (Escherichia coli TEM)	MIC (Escherichia coli DC2; Escherichia coli, DC2, 18 h)	MIC [10]	MIC [11, 20]	MIC (Escherichia coli DC0)	MIC [12, 21]	MIC (Escherichia coli 078; Escherichia coli, 078, 18 h)	further results
NCC1CCN(c2c(F)cc3c(=O)c(C(=O)C[N+](=O)[O-])cn(C4CC4)c3c2Cl)C1 (stereo not shown) [Example 53, 1-cyclopropyl-6-fluoro-8-chloro-7-(3-aminomethylpyrrolidin-1-yl)-3-(2-nitroacetyl)-1,4-dihydro-4-oxoquinoline hydrochloride]	0.781 µg/mL	0.025 µg/mL	0.195 µg/mL	0.013 µg/mL	0.013 µg/mL	0.049 µg/mL	0.098 µg/mL	< 0.002 µg/mL	0.013 µg/mL	0.391 µg/mL	0.049 µg/mL	0.013 µg/mL	< 0.002 µg/mL	0.013 µg/mL	0.049 µg/mL	0.781 µg/mL	0.013 µg/mL	0.195 µg/mL	0.007 µg/mL	–	MIC (Escherichia coli 078; [19]): < 0.002 µg/mL
CCn1cc(C(=O)C[N+](=O)[O-])c(=O)c2cc(F)c(N3CCC(N)C3)c(F)c21 (stereo not shown) [Example 30, 1-ethyl-6,8-difluoro-7-(3-aminopyrrolidin-1-yl)-3-(2-nitroacetyl)-1,4-dihydro-4-oxoquinoline hydrochloride]	–	0.391 µg/mL	0.195 µg/mL	0.195 µg/mL	0.781 µg/mL	1.56 µg/mL	1.56 µg/mL	0.049 µg/mL	0.098 µg/mL	0.781 µg/mL	1.56 µg/mL	0.049 µg/mL	–	0.391 µg/mL	0.195 µg/mL	0.781 µg/mL	0.195 µg/mL	0.781 µg/mL	0.195 µg/mL	0.049 µg/mL	MIC ([1]; Pseudomonas aeruginosa, 1771, 18 h): 0.391 µg/mL; MIC (Klebsiella oxytoca 1082E; Klebsiella oxytoca, 1082E, 18 h): 0.391 µg/mL
CC1CN(c2c(F)cc3c(=O)c(C(=O)C[N+](=O)[O-])cn(C4CC4)c3c2F)CCN1 (stereo not shown) [Example 7, 1-cyclopropyl-6,8-difluoro-7-(3-methylpiperazin-1-yl)-3-(2-nitroacetyl)-1,4-dihydro-4-oxoquinoline hydrochloride]	1.56 µg/mL	0.025 µg/mL	0.391 µg/mL	0.391 µg/mL	0.098 µg/mL	0.781 µg/mL	1.56 µg/mL	0.013 µg/mL	0.391 µg/mL	0.781 µg/mL	–	0.391 µg/mL	< 0.002 µg/mL	0.195 µg/mL	0.391 µg/mL	0.781 µg/mL	0.391 µg/mL	0.391 µg/mL	0.391 µg/mL	0.049 µg/mL	MIC [9, 22]: 0.781 µg/mL
N[C@@H]1CCN(c2c(F)cc3c(=O)c(C(=O)C[N+](=O)[O-])cn(C4CC4)c3c2Cl)C1 [Example 12, 1-cyclopropyl-6-fluoro-8-chloro-7-(3-3R-aminopyrrolidin-1-yl)-3-(2-nitroacetyl)-1,4-dihydro-4-oxoquinoline hydrochloride]	0.195 µg/mL	–	0.049 µg/mL	–	< 0.002 µg/mL	0.098 µg/mL	0.391 µg/mL	< 0.002 µg/mL	–	0.391 µg/mL	0.195 µg/mL	0.004 µg/mL	< 0.002 µg/mL	0.004 µg/mL	0.049 µg/mL	0.391 µg/mL	–	0.098 µg/mL	–	–	MIC (Escherichia coli 1507E; 18 hours, read-out: MIC): 0.004 µg/mL; MIC ([3]; Staphylococcus aureus, SG511, 18 h): 0.025 µg/mL; MIC [7]: 0.025 µg/mL; MIC (Escherichia coli 078; [19]): < 0.002 µg/mL; MIC ([11]; Staphylococcus aureus, 503, 18 h): 0.025 µg/mL; MIC [12]: 0.025 µg/mL
CCOC(=O)C(C(=O)OCC)C(=O)c1cn(C2CC2)c2c(Cl)c(N3CC[C@H](N)C3)c(F)cc2c1=O [Example 24, 1-cyclopropyl-6-fluoro-8-chloro-7-(3-3S-aminopyrrolidin-1-yl)-3-(2,2-diethoxycarbonylacetyl)-1,4-dihydro-4-oxoquinoline hydrochloride]	0.391 µg/mL	–	0.049 µg/mL	0.049 µg/mL	< 0.002 µg/mL	0.391 µg/mL	0.391 µg/mL	< 0.002 µg/mL	0.013 µg/mL	0.391 µg/mL	0.391 µg/mL	< 0.002 µg/mL	< 0.002 µg/mL	< 0.002 µg/mL	0.025 µg/mL	0.391 µg/mL	0.049 µg/mL	0.098 µg/mL	0.049 µg/mL	–	MIC (Escherichia coli 1507E; 18 hours, read-out: MIC): < 0.002 µg/mL; MIC (Escherichia coli 078; [19]): < 0.002 µg/mL
CC1CN(c2cc3c(cc2F)c(=O)c(C(=O)C[N+](=O)[O-])cn3-c2ccc(F)cc2F)CCN1 (stereo not shown) [Example 10, 1-(2,4-difluorophenyl)-6-fluoro-7-(3-methylpiperazin-1-yl)-3-(2-nitroacetyl)-1,4-dihydro-4-oxoquinoline hydrochloride]	3.12 µg/mL	0.098 µg/mL	1.56 µg/mL	0.391 µg/mL	0.049 µg/mL	1.56 µg/mL	1.56 µg/mL	0.049 µg/mL	1.56 µg/mL	1.56 µg/mL	–	0.049 µg/mL	0.025 µg/mL	0.098 µg/mL	0.391 µg/mL	3.12 µg/mL	0.391 µg/mL	1.56 µg/mL	0.391 µg/mL	0.049 µg/mL	MIC [9, 22]: 0.781 µg/mL
CCOC(=O)C(C(=O)OCC)C(=O)c1cn(C2CC2)c2c(Cl)c(N3CC[C@@H](NC)C3)c(F)cc2c1=O [Example 55, 1-cyclopropyl-6-fluoro-8-chloro-7-(3-3R-methylaminopyrrolidin-1-yl)-3-(2,2-diethoxycarbonylacetyl)-1,4-dihydro-4-oxoquinoline hydrochloride]	0.391 µg/mL	0.025 µg/mL	0.195 µg/mL	0.098 µg/mL	0.013 µg/mL	0.391 µg/mL	1.56 µg/mL	0.049 µg/mL	0.049 µg/mL	0.391 µg/mL	0.391 µg/mL	0.025 µg/mL	0.025 µg/mL	0.025 µg/mL	0.098 µg/mL	1.56 µg/mL	0.195 µg/mL	0.391 µg/mL	0.195 µg/mL	0.013 µg/mL	–
CCOC(=O)C(C#N)C(=O)c1cn(C2CC2)c2c(Cl)c(N3CCC(N)C3)c(F)cc2c1=O (stereo not shown) [Example 39, 1-cyclopropyl-6-fluoro-8-chloro-7-(3-aminopyrrolidin-1-yl)-3-(2-cyano-2-ethoxycarbonylacetyl)-1,4-dihydro-4-oxoquinoline hydrochloride]	12.5 µg/mL	0.781 µg/mL	3.12 µg/mL	1.56 µg/mL	–	6.25 µg/mL	25 µg/mL	0.049 µg/mL	0.781 µg/mL	12.5 µg/mL	6.25 µg/mL	0.391 µg/mL	0.049 µg/mL	0.391 µg/mL	–	12.5 µg/mL	1.56 µg/mL	6.25 µg/mL	1.56 µg/mL	0.049 µg/mL	MIC (Salmonella typhimurium; TYPHIMURIUM, 18 h): 0.391 µg/mL; MIC (Escherichia coli DC2; Escherichia coli DC2, Muller-Hinton agar, 37° C., 18 hours, read-out: MIC): 3.12 µg/mL
